Measurements published in the supplement of paper PMC11208160.

Assay: recombinant UMI read abundance after kanamycin selection (control-corrected) (log10(CPM+1)); higher = more efficient recombination; extreme values may be limits of the assay; sequences stand for … in AGTGCAGAGAAAATCGGCCAGTTTTCTCTGCCTGCAGTCCGCATGCCGTGGGACCCCTTGGGTTCTAACCTGTTGCCTAGATTTATGCAGCGGACTGCCTTTCTCCCAAAGTGATAAACCGG…AGGTTGGTTTCACT; site = the 11-nt donor
In short: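 In a pooled Escherichia coli screen for the IS621 bridge recombinase, donor and donor-binding-loop pairs were each placed with a 12-nt UMI on a plasmid bearing a promoterless kanamycin gene. This library was co-electroporated with a target plasmid encoding a fixed target and T7-inducible recombinase, and cells were plated either on IPTG (0.07 mM) plus kanamycin or without selection, in two replicates each. Recombinant UMIs were PCR-amplified across the donor–target junction and sequenced, and counts were converted to CPM, averaged over replicates, scaled by control-derived factors and reported as log10(CPM+1).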
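Further: IS621 bridge recombinase in Escherichia coli cells against a fixed T5 target plasmid.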

“TATTTGGCATGGACCGGTTTTCCCGGTAATCCGTATTTGTC (site TATTTGGCTGA)” and “TATTTGGCATGGACCGGTTTTCCCGGTAATCCGTATTTGTC (site TATTTGGCTTA)” are within 0.2 log units of each other in “recombinant UMI read abundance (log10)” value: 0 for the first, 0.00596 for the second.

“TATTTGGCATGGACCGGTTTTCCCGGTAATCCGTATTTGTG (site AATTTGGCTCA)” and “TATTTGGCATGGACCGGTTTTCCCGGTAATCCGTATTTGTG (site CATTTGGCTCA)” are within 0.2 log units of each other in “recombinant UMI read abundance (log10)” value: 0.0279 for the first, 0.0142 for the second.

“TATTTGGCATGGACCGGTTTTCCCGGTAATCCGTATTTGTG (site GATTTGGCTCA)” and “TATTTGGCATGGACCGGTTTTCCCGGTAATCCGTATTTGTG (site TAATTGGCTCA)” are within 0.2 log units of each other in “recombinant UMI read abundance (log10)” value: 0.026 for the first, 0.0238 for the second.

“TATTTGGCATGGACCGGTTTTCCCGGTAATCCGTATTTGTG (site TACTTGGCTCA)” and “TATTTGGCATGGACCGGTTTTCCCGGTAATCCGTATTTGTG (site TAGTTGGCTCA)” are within 0.2 log units of each other in “recombinant UMI read abundance (log10)” value: 0.00946 for the first, 0.00343 for the second.

“TATTTGGCATGGACCGGTTTTCCCGGTAATCCGTATTTGTG (site TATATGGCTCA)” and “TATTTGGCATGGACCGGTTTTCCCGGTAATCCGTATTTGTG (site TATCTGGCTCA)” are within 0.2 log units of each other in “recombinant UMI read abundance (log10)” value: 0.00476 for the first, 0.00736 for the second.

“TATTTGGCATGGACCGGTTTTCCCGGTAATCCGTATTTGTG (site TATGTGGCTCA)” and “TATTTGGCATGGACCGGTTTTCCCGGTAATCCGTATTTGTG (site TATTAGGCTCA)” are within 0.2 log units of each other in “recombinant UMI read abundance (log10)” value: 0.0139 for the first, 0.00968 for the second.

“TATTTGGCATGGACCGGTTTTCCCGGTAATCCGTATTTGTG (site TATTCGGCTCA)” and “TATTTGGCATGGACCGGTTTTCCCGGTAATCCGTATTTGTG (site TATTGGGCTCA)” are within 0.2 log units of each other in “recombinant UMI read abundance (log10)” value: 0.0142 for the first, 0.00686 for the second.

“TATTTGGCATGGACCGGTTTTCCCGGTAATCCGTATTTGTG (site TATTTAGCTCA)” and “TATTTGGCATGGACCGGTTTTCCCGGTAATCCGTATTTGTG (site TATTTCGCTCA)” are within 0.2 log units of each other in “recombinant UMI read abundance (log10)” value: 0.0189 for the first, 0.00607 for the second.

“TATTTGGCATGGACCGGTTTTCCCGGTAATCCGTATTTGTG (site TATTTGACTCA)” and “TATTTGGCATGGACCGGTTTTCCCGGTAATCCGTATTTGTG (site TATTTGCCTCA)” are within 0.2 log units of each other in “recombinant UMI read abundance (log10)” value: 0.0103 for the first, 0.00864 for the second.

“TATTTGGCATGGACCGGTTTTCCCGGTAATCCGTATTTGTG (site TATTTGGCTAA)” and “TATTTGGCATGGACCGGTTTTCCCGGTAATCCGTATTTGTG (site TATTTGGCTCA)” are within 0.2 log units of each other in “recombinant UMI read abundance (log10)” value: 0.0123 for the first, 0.0246 for the second.

“TATTTGGCATGGACCGGTTTTCCCGGTAATCCGTATTTGTG (site TATTTGGCTCC)” and “TATTTGGCATGGACCGGTTTTCCCGGTAATCCGTATTTGTG (site TATTTGGCTCG)” are within 0.2 log units of each other in “recombinant UMI read abundance (log10)” value: 0.0133 for the first, 0.00904 for the second.

“TATTTGGCATGGACCGGTTTTCCCGGTAATCCGTATTTGTG (site TATTTGGCTCT)” and “TATTTGGCATGGACCGGTTTTCCCGGTAATCCGTATTTGTG (site TATTTGGCTGA)” are within 0.2 log units of each other in “recombinant UMI read abundance (log10)” value: 0.0103 for the first, 0 for the second.

“TATTTGGCATGGACCGGTTTTCCCGGTAATCCGTATTTGTG (site TATTTGGCTTA)” and “TATTTGGCATGGACCGGTTTTCCCGGTAATCCGTATTTGTG (site TATTTGTCTCA)” are within 0.2 log units of each other in “recombinant UMI read abundance (log10)” value: 0.0236 for the first, 0.0606 for the second.

“TATTTGGCATGGACCGGTTTTCCCGGTAATCCGTATTTGTG (site TATTTTGCTCA)” and “TATTTGGCATGGACCGGTTTTCCCGGTAATCCGTATTTGTG (site TCTTTGGCTCA)” are within 0.2 log units of each other in “recombinant UMI read abundance (log10)” value: 0.0154 for the first, 0.00921 for the second.

“TATTTGGCATGGACCGGTTTTCCCGGTAATCCGTATTTGTG (site TGTTTGGCTCA)” and “TATTTGGCATGGACCGGTTTTCCCGGTAATCCGTATTTGTG (site TTTTTGGCTCA)” are within 0.2 log units of each other in “recombinant UMI read abundance (log10)” value: 0.00811 for the first, 0.0282 for the second.

Compared with “TCAAAGACATGGACCGGTTTTCCCGGTAATCCGTATTTGCG (site TCAAAGACTCG)”, “TCAAAGACATGGACCGGTTTTCCCGGTAATCCGTATTTGCG (site TCACAGACTCG)” is lower in “recombinant UMI read abundance (log10)” value: 1.9 for the first, 0.546 for the second.

“TCAAAGACATGGACCGGTTTTCCCGGTAATCCGTATTTGCG (site TCAGAGACTCG)” and “TCAAAGACATGGACCGGTTTTCCCGGTAATCCGTATTTGCG (site TCATAGACTCG)” are within 0.2 log units of each other in “recombinant UMI read abundance (log10)” value: 0.87 for the first, 0.773 for the second.

“TCAACCGCATGGACCGGTTTTCCCGGTAATCCGTATTTGCG (site TCAACCGCTCG)” and “TCAACCGCATGGACCGGTTTTCCCGGTAATCCGTATTTGCG (site TCCACCGCTCG)” are the same in “recombinant UMI read abundance (log10)” value: 0 for the first, 0 for the second.

“TCAACCGCATGGACCGGTTTTCCCGGTAATCCGTATTTGCG (site TCGACCGCTCG)” and “TCAACCGCATGGACCGGTTTTCCCGGTAATCCGTATTTGCG (site TCTACCGCTCG)” are within 0.2 log units of each other in “recombinant UMI read abundance (log10)” value: 0.00292 for the first, 0 for the second.

First: TCAACGGCATGGACCGGTTTTCCCGGTAATCCGTATTTGCC (site TCAACGGCTGG)
Second: TCAAGCACATGGACCGGTTTTCCCGGTAATCCGTATTTGAT (site TCAAGCACTAT)
The “recombinant UMI read abundance (log10)” value of the first is lower: 0.143 for the first, 1.94 for the second.

First: TCAAGTCCATGGACCGGTTTTCCCGGTAATCCGTATTTGTA (site TAAAGTCCTTA)
Second: TCAAGTCCATGGACCGGTTTTCCCGGTAATCCGTATTTGTA (site TCAAGTCCTTA)
The “recombinant UMI read abundance (log10)” value of the first is lower: 0.314 for the first, 1.01 for the second.

“TCAAGTCCATGGACCGGTTTTCCCGGTAATCCGTATTTGTA (site TGAAGTCCTTA)” and “TCAAGTCCATGGACCGGTTTTCCCGGTAATCCGTATTTGTA (site TTAAGTCCTTA)” are within 0.2 log units of each other in “recombinant UMI read abundance (log10)” value: 0.226 for the first, 0.0663 for the second.

“TCAATGACATGGACCGGTTTTCCCGGTAATCCGTATTTGGT (site TCAATGACTAC)” and “TCACACCCATGGACCGGTTTTCCCGGTAATCCGTATTTGCC (site TCACACCCTGG)” are within 0.2 log units of each other in “recombinant UMI read abundance (log10)” value: 0.953 for the first, 0.92 for the second.

Compared with “TCACAGACATGGACCGGTTTTCCCGGTAATCCGTATTTGCG (site TCAAAGACTCG)”, “TCACAGACATGGACCGGTTTTCCCGGTAATCCGTATTTGCG (site TCACAGACTCG)” is higher in “recombinant UMI read abundance (log10)” value: 0.308 for the first, 2.16 for the second.

“TCACAGACATGGACCGGTTTTCCCGGTAATCCGTATTTGCG (site TCAGAGACTCG)” and “TCACAGACATGGACCGGTTTTCCCGGTAATCCGTATTTGCG (site TCATAGACTCG)” are within 0.2 log units of each other in “recombinant UMI read abundance (log10)” value: 0.267 for the first, 0.29 for the second.

“TCACATCCATGGACCGGTTTTCCCGGTAATCCGTATTTGAC (site ACACATCCTGT)” and “TCACATCCATGGACCGGTTTTCCCGGTAATCCGTATTTGAC (site CCACATCCTGT)” are the same in “recombinant UMI read abundance (log10)” value: 0 for the first, 0 for the second.

“TCACATCCATGGACCGGTTTTCCCGGTAATCCGTATTTGAC (site GCACATCCTGT)” and “TCACATCCATGGACCGGTTTTCCCGGTAATCCGTATTTGAC (site TCACATCCTGT)” are the same in “recombinant UMI read abundance (log10)” value: 0 for the first, 0 for the second.

“TCACCCGCATGGACCGGTTTTCCCGGTAATCCGTATTTGGT (site TCACCCGCTAC)” and “TCACCTTCATGGACCGGTTTTCCCGGTAATCCGTATTTGGT (site TCACCTTCTAC)” are within 0.2 log units of each other in “recombinant UMI read abundance (log10)” value: 0.206 for the first, 0.0163 for the second.

Compared with “TCACGAACATGGACCGGTTTTCCCGGTAATCCGTATTTGTC (site ACACGAACTGA)”, “TCACGAACATGGACCGGTTTTCCCGGTAATCCGTATTTGTC (site CCACGAACTGA)” is higher in “recombinant UMI read abundance (log10)” value: 0 for the first, 0.736 for the second.

“TCACGAACATGGACCGGTTTTCCCGGTAATCCGTATTTGTC (site GCACGAACTGA)” and “TCACGAACATGGACCGGTTTTCCCGGTAATCCGTATTTGTC (site TCACGAACTGA)” are the same in “recombinant UMI read abundance (log10)” value: 0 for the first, 0 for the second.

Compared with “TCACGAGCATGGACCGGTTTTCCCGGTAATCCGTATTTGAA (site TCACGAGCTTT)”, “TCACGCACATGGACCGGTTTTCCCGGTAATCCGTATTTGAC (site TCACGCACTGT)” is lower in “recombinant UMI read abundance (log10)” value: 1.23 for the first, 0.943 for the second.

Compared with “TCACGCGCATGGACCGGTTTTCCCGGTAATCCGTATTTGCT (site TCACGCGCTAG)”, “TCACGGACATGGACCGGTTTTCCCGGTAATCCGTATTTGCT (site TCACGGACTAG)” is lower in “recombinant UMI read abundance (log10)” value: 1.67 for the first, 1.43 for the second.

Going from “TCAGAAACATGGACCGGTTTTCCCGGTAATCCGTATTTGCG (site TCAGAAACTCG)” to “TCAGAAACATGGACCGGTTTTCCCGGTAATCCGTATTTGCG (site TCAGACACTCG)”, the “recombinant UMI read abundance (log10)” value falls from 1.86 to 0.0112.

Going from “TCAGAAACATGGACCGGTTTTCCCGGTAATCCGTATTTGCG (site TCAGAGACTCG)” to “TCAGAAACATGGACCGGTTTTCCCGGTAATCCGTATTTGCG (site TCAGATACTCG)”, the “recombinant UMI read abundance (log10)” value falls from 2.47 to 0.202.
